This note sets out measurements from patent US20260234144A1 (TAY THERAPEUTICS LIMITED, priority 2023, published 2026).

For the experiment, the system named is R223X stop codon in the mutated luciferase gene, ADXC8 luciferase reporter cell line. In words: cells. The experiment is classed as cell-based. The note with it: 24 h, ADXC8 cells, 24 hours; for Emax: read-out: Fold Over Control, maximum fold response relative to 200 μM G418; for EC (100% of 200 uM G418 response): read-out: pC100%, negative logarithm of the concentration giving the same response as 200 μM G418.

The structures appear in SMILES notation.

In the case of `CNc1nc(NC2CCN3CCCC23)nc2nc(C)cc(C)c12` (centres unmarked) [Example 439], the Emax lay in the range of 0 to 100% and the EC (100% of 200 uM G418 response) was more than 31.6 µM. On the same counts, the results for `Cc1c2c(nc3nc(NC4CCN(Cc5cccc(B(O)O)c5)CC4)nc(N)c13)CCC2` [Example 669] are 100 to 3000% and 1 to 10 µM. As for `Cc1ccc2c(N)nc(NC3CCN(C)CC3)nc2n1` [Example 3, 7-methyl-N^2-(1-methylpiperidin-4-yl)pyrido[2,3-d]pyrimidine-2,4-diamine], the EC (100% of 200 uM G418 response) lay in the range of 1 to 10 µM.

As for `Cc1cc(C)c2c(N)nc(NC3CCN(Cc4cccc(F)c4O)CC3)nc2n1` [Example 566], the Emax lay in the range of 100 to 3000% and the EC (100% of 200 uM G418 response) lay within 0.1 to 1 µM. Regarding `CNc1nc(NC2CCN3CCCC3C2)nc2nc(C)cc(C)c12` (single isomer, unassigned) [Example 442], the EC (100% of 200 uM G418 response) was in the range of 1 to 10 µM. For the compound `Cc1c2c(nc3nc(NC4CCN(Cc5ccn[nH]5)CC4)nc(N)c13)CCC2` [Example 662], the Emax was 100 to 3000% and the EC (100% of 200 uM G418 response) is 1 to 10 µM.

As to `Cc1cc(C)c2c(N)nc(N[C@@H]3CCCC[C@H]3N(C)C)nc2n1` [Example 181], the Emax fell in the range of 0 to 100% and the EC (100% of 200 uM G418 response) was more than 31.6 µM. On the same counts, the results for `Cc1nc2nc(NC3CCN(Cc4ccc(C#N)c(F)c4)CC3)nc(N)c2c2c1CCC2` [Example 528] are 100 to 3000% and 0.1 to 1 µM.

Take `CN1CCC(Nc2nc(N)c3cc(CO)cnc3n2)CC1` [Example 123, {4-amino-2-[(1-methylpiperidin-4-yl)amino]pyrido[2,3-d]pyrimidin-6-yl}methanol]: the Emax fell in the range of 0 to 100% and the EC (100% of 200 uM G418 response) was more than 100 µM. `Cc1cc(C)c2c(N)nc(NC3CCN(Cc4ccc(F)cc4)CC3)nc2n1` [Example 457]: the Emax fell in the range of 100 to 3000% and the EC (100% of 200 uM G418 response) was in the range of 0.1 to 1 µM. In the case of `CNc1nc(NCC23CCCN2CCC3)nc2nc(C)cc(C)c12` [Example 600], the Emax lay in the range of 0 to 100% and the EC (100% of 200 uM G418 response) was more than 31.6 µM.

As to `Cc1cc(C)c2c(N)nc(NC3CCN(Cc4cccc(C(F)F)c4)CC3)nc2n1` [Example 489], the Emax fell in the range of 100 to 3000% and the EC (100% of 200 uM G418 response) was 1 to 10 µM.

`Cc1cc(C)c2c(NC3CCC3)nc(N[C@@H]3CCNC3)nc2n1` [Example 333]: the Emax was 0 to 100% and the EC (100% of 200 uM G418 response) was more than 31.6 µM. On the same counts, the results for `CN1CCC(Nc2nc(N)c3cc(C#N)cnc3n2)CC1` [Example 277] are 0 to 100% and more than 31.6 µM. The like results for `CN1CCC(Nc2nc(N)c3ccc(-c4cncnc4)nc3n2)CC1` [Example 98] were, in that order, 0 to 100% and more than 100 µM. As to `CN1CCC(Nc2nc(N)c3ccc(-c4ccccc4C#N)nc3n2)CC1` [Example 118], the EC (100% of 200 uM G418 response) lay in the range of 10 to 100 µM. `CNc1nc(N[C@@H]2C[C@H](C)N(C)C2)nc2nc(C)cc(C)c12` [Example 367]: the EC (100% of 200 uM G418 response) is 1 to 10 µM. For `Cc1cc(C)c2c(N)nc(NC3CCN(Cc4ccncc4C(F)F)CC3)nc2n1` [Example 533], the Emax was 100 to 3000% and the EC (100% of 200 uM G418 response) lay in the range of 10 to 100 µM. The like results for `COCc1ccccc1CN1CCC(Nc2nc(N)c3c(C)cc(C)nc3n2)CC1` [Example 455] were, in that order, 100 to 3000% and 1 to 10 µM.

Turning to `Cc1cc(C)c2c(N)nc(NC3CCN(Cc4cncs4)CC3)nc2n1` [Example 459], the Emax lay in the range of 100 to 3000% and the EC (100% of 200 uM G418 response) was 1 to 10 µM.

In the case of `Cc1c2c(nc3nc(N[C@H]4CN(C)C[C@@H]4O)nc(N(C)C)c13)CCC2` [Example 547], the Emax lay within 100 to 3000% and the EC (100% of 200 uM G418 response) was in the range of 10 to 100 µM. The like results for `Cc1cc(C)c2c(N)nc(NCC(O)CN3CCCCC3)nc2n1` (centres unmarked) [Example 642] were, in that order, 100 to 3000% and 10 to 100 µM.

On to `Cc1cc(C)c2c(N)nc(NC[C@@H]3CNCCO3)nc2n1` [Example 176], for which the Emax lay in the range of 100 to 3000% and the EC (100% of 200 uM G418 response) was 1 to 10 µM. Consider `CNc1nc(N[C@H]2CN[C@H](C)C2)nc2nc(C)cc(C)c12` [Example 376], for which the EC (100% of 200 uM G418 response) was in the range of 0.1 to 1 µM.

Take `CN1CCC(Nc2nc(N)c3ccc(-c4ccccc4N)nc3n2)CC1` [Example 113]: the Emax was in the range of 100 to 3000% and the EC (100% of 200 uM G418 response) lay within 10 to 100 µM. On the same counts, the results for `Cc1cc(C)c2c(N)nc(NC3C[C@H]4CC[C@@H](C3)N4C)nc2n1` (some centres unmarked) [Example 218] are 100 to 3000% and 1 to 10 µM.

Consider `CC(=O)Nc1cnccc1CN1CCC(Nc2nc(N)c3c(C)cc(C)nc3n2)CC1` [Example 560], for which the Emax lay within 100 to 3000% and the EC (100% of 200 uM G418 response) was 1 to 10 µM. For the compound `Cc1cc(C2CC2)nc2nc(NC3CCN(C)CC3)nc(N)c12` [Example 601], the EC (100% of 200 uM G418 response) lay within 1 to 10 µM.

`CC(O)c1cnc2nc(NC3CCN(C)CC3)nc(N)c2c1` (centres unmarked) [Example 126, 1-{4-amino-2-[(1-methylpiperidin-4-yl)amino]pyrido[2,3-d]pyrimidin-6-yl}ethanol]: the Emax lay in the range of 0 to 100% and the EC (100% of 200 uM G418 response) was more than 100 µM. Consider `CNc1nc(N[C@H]2CN[C@H](CF)C2)nc2nc(C)cc(C)c12` [Example 413], for which the EC (100% of 200 uM G418 response) lay in the range of 0.1 to 1 µM.

On to `Cc1cc(C)c2c(N)nc(NC3CCN(Cc4ccccc4F)CC3)nc2n1` [Example 465], for which the Emax was 100 to 3000% and the EC (100% of 200 uM G418 response) fell in the range of 1 to 10 µM.

As for `CNc1nc(NC2CCN(C)C2(C)C)nc2nc(C)cc(C)c12` (centres unmarked) [Example 409], the Emax lay within 100 to 3000% and the EC (100% of 200 uM G418 response) was in the range of 1 to 10 µM. The like results for `CNc1nc(N[C@H]2CN(C)C[C@@H]2F)nc2nc(C)cc(C)c12` [Example 339] were, in that order, 100 to 3000% and 1 to 10 µM.

On to `C=C(C)c1ccc2c(N)nc(NC3CCN(C)CC3)nc2n1` [Example 238, N^2-(1-methylpiperidin-4-yl)-7-(prop-1-en-2-yl) pyrido[2,3-d]pyrimidine-2,4-diamine], for which the Emax lay in the range of 0 to 100% and the EC (100% of 200 uM G418 response) is more than 31.6 µM. The like results for `Cc1cc(C)c2c(N)nc(N[C@H]3CCNCC3(F)F)nc2n1` [Example 220] were, in that order, 100 to 3000% and 1 to 10 µM. As for `Cc1cc(C)c2c(N)nc(N[C@@H]3CCNC[C@@H]3F)nc2n1` [Example 586], the EC (100% of 200 uM G418 response) is 1 to 10 µM. On the same count and under the same terms, under `CCNc1nc(N[C@@]23CNC[C@@H]2C3)nc2nc(C)cc(C)c12` [Example 419] stands 0.1 to 1 µM. With `COCC1CN(CCNc2nc(N)c3c(C)cc(C)nc3n2)C1` [Example 164], the Emax is 0 to 100% and the EC (100% of 200 uM G418 response) was more than 31.6 µM. Take `Cc1cc(C)c2c(N)nc(NC3CCN(Cc4cccc(C)c4O)CC3)nc2n1` [Example 539]: the Emax lay within 100 to 3000% and the EC (100% of 200 uM G418 response) lay within 0.1 to 1 µM. Regarding `CNc1nc(N[C@H]2CNC[C@H]2F)nc2nc(C)c3c(c12)CCC3` [Example 347], the EC (100% of 200 uM G418 response) is 0.1 to 1 µM.

Regarding `CNc1nc(NC2CCN(Cc3ccccc3O)CC2)nc2nc(C)cc(C)c12` [Example 579], the Emax was in the range of 100 to 3000% and the EC (100% of 200 uM G418 response) lay within 0.1 to 1 µM. For the compound `Cc1cc(C)c2c(N)nc(NC3CCN(Cc4cscn4)CC3)nc2n1` [Example 461], the Emax lay in the range of 100 to 3000% and the EC (100% of 200 uM G418 response) is 1 to 10 µM.

In the case of `CNc1nc(N[C@@H]2CNC[C@H]2O)nc2nc3c(c(C)c12)CCC3` [Example 546], the Emax is 100 to 3000% and the EC (100% of 200 uM G418 response) is 1 to 10 µM. On to `CNCCNc1nc(N)c2c(C)cc(C)nc2n1` [Example 285], for which the EC (100% of 200 uM G418 response) fell in the range of 1 to 10 µM. As to `Cc1ccc(CN2CCC(Nc3nc(N)c4c(C)cc(C)nc4n3)CC2)c(O)c1` [Example 540], the Emax lay in the range of 100 to 3000% and the EC (100% of 200 uM G418 response) fell in the range of 1 to 10 µM.

Regarding `CNc1nc(N[C@H]2CNC[C@H]2F)nc2nc(C)cc(C)c12` [Example 335], the Emax was 100 to 3000% and the EC (100% of 200 uM G418 response) was in the range of 1 to 10 µM. On to `CNc1nc(N[C@H]2CN[C@@H](COC)C2)nc2nc(C)cc(C)c12` [Example 406], for which the EC (100% of 200 uM G418 response) is 1 to 10 µM.

Turning to `Cc1nc2nc(NC3CCN(C)CC3)nc(N)c2cc1Br` [Example 21, 6-bromo-7-methyl-N-(1-methylpiperidin-4-yl)pyrido[2,3-d]pyrimidine-2,4-diamine], the Emax lay in the range of 100 to 3000% and the EC (100% of 200 uM G418 response) was 1 to 10 µM.

Consider `CNc1nc(N[C@@H]2CCN(C)C2)nc2nc(C)cc(C)c12` [Example 327], for which the Emax lay within 100 to 3000% and the EC (100% of 200 uM G418 response) fell in the range of 1 to 10 µM. For the compound `Cc1cc(C)c2c(N)nc(NCCN3CC(F)C3)nc2n1` [Example 163], the Emax is 100 to 3000% and the EC (100% of 200 uM G418 response) lay within 10 to 100 µM.

In the case of `CNc1nc(N[C@H]2CN(C)C[C@H]2F)nc2nc(C)c(Br)c(C)c12` [Example 613], the EC (100% of 200 uM G418 response) fell in the range of 1 to 10 µM. Same read-out and setting: in the case of `[2H]C([2H])([2H])Nc1nc(NC2CCN(C([2H])([2H])[2H])CC2)nc2nc(C)cc(C)c12` [Example 512, 5,7-dimethyl-N^4-(methyl-da)-N^2-(1-(methyl-da)piperidin-4-yl)pyrido[2,3-d]pyrimidine-2,4-diamine] it was 0.1 to 1 µM. With `Cc1cc(C)c2c(NCC(F)(F)F)nc(N[C@@H]3CCN(C)C3)nc2n1` [Example 389], the Emax lay within 100 to 3000% and the EC (100% of 200 uM G418 response) is 10 to 100 µM. `CNc1nc(N[C@H]2CN(C)C[C@H]2C)nc2nc(C)cc(C)c12` [Example 379]: the Emax was in the range of 100 to 3000% and the EC (100% of 200 uM G418 response) was 1 to 10 µM. Take `Cc1cc(C)c2c(N)nc(N[C@H]3CNC[C@H]3C)nc2n1` [Example 351]: the EC (100% of 200 uM G418 response) was in the range of 1 to 10 µM.
